Data taken from article PMC12301034, “Design and Synthesis of Boronic Chalcones with Dual Anticancer and Anti-Inflammatory Activity” (Molecules, 2025).
One block for each compound: values may come before it.

Columns and labels:
[1] = Partition coefficient (Log P), OECD 117 HPLC method
SCC-25 cells = test: MTT cytotoxicity assay on SCC-25 cells; format: cell-based, human; conditions: for IC50: MTT, 24 h incubation, mean SEM of three experiments; for SI = IC50 NOK-si/IC50 SCC-25: selectivity index
Source text: (§1) The SCC-25 (ATCC® CRL-1628™), Detroit-562 (ATCC® CCL-138™), and THP-1 (ATCC® TIB-202™) cells were purchased from Rio de Janeiro Cell Bank (Duque de Caxias, Brazil), and NOK-si was kindly provided by Prof. Carlos Rossa from the School of Dentistry—UNESP. All the cells were cultivated according to standard conditions. Human colorectal adenocarcinoma HCT116 cell lines (ATCC® CCL-247™) expressing p53 and its p53-null isogenic derivative (HCT116 p53^−/−) were provided by B. Vogelstein (The Johns Hopkins Kimmel Cancer Center, Baltimore, MD, USA).
(§2) Cells (NOK-si, SCC-25, and Detroit-562) were grown in a DMEM medium (Dulbecco’s Modified Eagle Medium), supplemented according to the needs of each lineage, as recommended by its cell banks, with 2 mM L-glutamine, 10% or 20% fetal bovine serum (FBS), 1% antibiotic–antimycotic solution (5 mg/mL penicillin, 5 mg/mL streptomycin, and 10 mg/mL neomycin), 4.5 g/L of glucose, and 3.7 g/L of sodium bicarbonate (NaHCO3). All cell lines were cultured in flasks at 37 °C in 5% carbon dioxide (CO2) and 95% of relative humidity. The assays were conducted between the third- and the seventh-cell passage, with sub-cultures every 3–4 days to maintain exponential growth. The cell viability was checked using the trypan blue dye exclusion assay for all experiments, where over 95% of the cells were viable at the beginning of the tests. NOK-si, SCC-25, and Detroit-562 were initially thawed and cultured in 25 cm^2 cell culture flasks. Cell growth was monitored using a microscope, and the culture medium was changed periodically. Upon reaching confluency, cell dissociation was achieved by adding 5 mL of trypsin (Sigma-Aldrich, St Louis, MO, USA) and incubating the bottles in a CO2 incubator for 10 min. Subsequently, the cells were transferred to 15 mL Falcon tubes and centrifuged at 2000 rpm for 10 min. Cell counting was performed using a Countess II FL automated cell counter (ThermoFischer, Waltham, MA, USA). The cells were seeded at a density of 30,000 cells per well in 96-well plates. The plates were then incubated at 37 °C in 5% CO2 for 24 h. Following this, test compounds were incubated for another 24 h at 10 different concentrations: 50, 25, 12.5, 6.25, 3.12, 1.56, 0.78, 0.39, 0.19, and 0.097 µg/mL. After the specified time, MTT reagent (3 mg/mL) (Sigma-Aldrich, St Louis, MO, USA) dissolved in phenol-free RPMI 1640 was added and incubated for 4 h. The formed MTT crystals were solubilized using 2-propanol P.A. (Sigma-Aldrich, St Louis, MO, USA) with agitation. Absorbance was read at 562 nm using an EZ Read 400 microplate reader (Biochrom, Cambridge, UK) and ADAP 2.0 Biochrom software (version 2.0). IC50 values and graphs were calculated using Excel and Prism software (version 10.4.1). The MTT assay results were evaluated for normality using the Shapiro–Wilk test, followed by one-way ANOVA with Tukey’s post hoc test at a significance level of 5%.

NOK-si cells = test: MTT cytotoxicity assay on NOK-si normal oral keratinocytes; format: cell-based; conditions: 24 h incubation; for CC50: Keratinocyte, read-out: NOK-si IC50
Source text: as §1, §2

HCT116 p53^+/+ cells = test: SRB cytotoxicity assay on HCT116 p53+/+ cells; format: cell-based, human; conditions: 48 h of treatment, read-out: HCT p53^+/+ IC50
Source text: as §1
(§3) HCT p53^+/+ and HCT p53^−/− cell lines were seeded in 96-well plates, with a concentration of 5000 cells/well, and allowed to adhere overnight. Afterwards, they were treated with serial dilutions of the compounds for an additional 48 h (compounds were prepared at 30 mM, in DMSO, and tested with a starting concentration of 50μM and 15 μM). Cells passed then through a series of essential steps (fixation with 10% trichloroacetic acid, for 1 h at 4 °C; staining with 0.4% sulforhodamine B (SRB); wash with 1% acetic acid; and solubilization with 10 mM Tris-Base); subsequently, absorbance was measured at 510 nm in a microplate reader (Biotek Instruments Inc., Synergy, MX, USA). IC50 values were determined using GraphPad Prism software, Version 7.0 (La Jolla, CA, USA).

HCT116 p53^−/− cells = test: SRB cytotoxicity assay on HCT116 p53-/- cells; format: cell-based, human; conditions: 48 h of treatment, read-out: HCT p53^−/− IC50
Source text: as §1, §3

chromatographic logP [1]: 2.16
Compound: COc1ccc(C(=O)/C=C/c2ccc(B(O)O)cc2)cc1OC [Compound 12, (E)-(4-(3-(3,4-dimethoxyphenyl)-3-oxoprop-1-en-1-yl)phenyl)boronic acid]
IC50 (SCC-25 cells; Homo sapiens, SCC-25): 38.4 ± 1.63 µM
SI = IC50 NOK-si/IC50 SCC-25 (SCC-25 cells): 0.77
CC50 (NOK-si cells): 29.5 ± 6.08 µM

chromatographic logP [1]: 2.3
Compound: COc1ccc(C(=O)/C=C/c2cccc(B(O)O)c2)cc1OC [Compound 6, (E)-(3-(3-(3,4-dimethoxyphenyl)-3-oxoprop-1-en-1-yl)phenyl)boronic acid]
IC50 (SCC-25 cells; Homo sapiens, SCC-25): 27.2 ± 3.84 µM
SI = IC50 NOK-si/IC50 SCC-25 (SCC-25 cells): 0.77
CC50 (NOK-si cells): 20.8 ± 2.17 µM

chromatographic logP [1]: 1.18
Compound: Nc1cccc(C(=O)/C=C/c2ccc(B(O)O)cc2)c1 [Compound 9, (E)-(4-(3-(3-aminophenyl)-3-oxoprop-1-en-1-yl)phenyl)boronic acid]
IC50 (SCC-25 cells; Homo sapiens, SCC-25): 108 ± 22.5 µM
SI = IC50 NOK-si/IC50 SCC-25 (SCC-25 cells): 0.69
CC50 (NOK-si cells): 74.6 ± 15 µM

Second part, the compound before the results:

Compound: Nc1cccc(C(=O)/C=C/c2cccc(B(O)O)c2)c1 [Compound 3, (E)-(3-(3-(3-aminophenyl)-3-oxoprop-1-en-1-yl)phenyl)boronic acid]
chromatographic logP [1]: 1.49
IC50 (SCC-25 cells; Homo sapiens, SCC-25): 45.2 ± 13.7 µM
CC50 (NOK-si cells): 36.2 ± 10.7 µM

Compound: O=c1[nH]cc(F)c(=O)[nH]1 [Compound 5-FU, 5-fluorouracil, reference compound]
IC50 (SCC-25 cells; Homo sapiens, SCC-25): 1800 µM
SI = IC50 NOK-si/IC50 SCC-25 (SCC-25 cells): lacked selectivity
CC50 (NOK-si cells): 1800 ± 27.7 µM

Compound: (E)-(3-(3-(2-bromo-4-hydroxyphenyl)-3-oxoprop-1-en-1-yl)phenyl)boronic acid [Compound 7]
IC50 (SCC-25 cells): 41.1 ± 4.62 µM
SI = IC50 NOK-si/IC50 SCC-25 (SCC-25 cells): 1.31
NOK-si IC50 (NOK-si cells): 54.0 ± 10.98 µM
IC50 (HCT116 p53^+/+ cells): 3.63 ± 0.4 µM
IC50 (HCT116 p53^−/− cells): 4.2 ± 0.35 µM

Compound: (E)-(3-(3-(2-bromo-4-methoxyphenyl)-3-oxoprop-1-en-1-yl)phenyl)boronic acid [Compound 8]
IC50 (SCC-25 cells): 33.4 ± 1.25 µM
SI = IC50 NOK-si/IC50 SCC-25 (SCC-25 cells): 0.82
NOK-si IC50 (NOK-si cells): 27.4 ± 3.05 µM
IC50 (HCT116 p53^+/+ cells): 2.06 ± 0.45 µM
IC50 (HCT116 p53^−/− cells): 1.7 ± 0.72 µM
